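Interpolation was linear, between the two tested concentrations surrounding the appropriate level; five concentrations were tested over 48 hours in 96-well plates. GI50 = concentration required for 50% inhibition of growth.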 Activity calls are given as the source filed them. Cut-off read from the data, not from the text of the source: active = GI50 up to about 1.1 µM and inactive = higher.
What was measured:
Experiment in all cases: inhibition of tumour cell growth, NCI panel, 48 h
786-0 = system: 786-0
A549 = system: A549
ACHN = system: ACHN
CCRF-CEM = system: CCRF-CEM
COLO 205 = system: COLO 205
DMS-114 = system: DMS-114
DMS-273 = system: DMS-273
EKVX = system: EKVX
HCC 2998 = system: HCC 2998
HCT-116 = system: HCT-116
HCT-15 = system: HCT-15
HL-60 = system: HL-60
HOP-62 = system: HOP-62
HT-29 = system: HT-29
IGROV-1 = system: IGROV-1
K562 = system: K562
KM-20L2 = system: KM-20L2
KM12 = system: KM12
LOX IMVI = system: LOX IMVI
LXFL 529 = system: LXFL 529
M14 = system: M14
M19-MEL = system: M19-MEL
MOLT-4 = system: MOLT-4
Malme-3M = system: Malme-3M
NCI-H226 = system: NCI-H226
NCI-H23 = system: NCI-H23
NCI-H460 = system: NCI-H460
NCI-H522 = system: NCI-H522
OVCAR-3 = system: OVCAR-3
OVCAR-4 = system: OVCAR-4
OVCAR-5 = system: OVCAR-5
OVCAR-8 = system: OVCAR-8
RPMI-8226 = system: RPMI-8226
RXF 393 = system: RXF 393
SF-268 = system: SF-268
SF-295 = system: SF-295
SF-539 = system: SF-539
SK-MEL-28 = system: SK-MEL-28
SK-MEL-2 = system: SK-MEL-2
SK-MEL-5 = system: SK-MEL-5
SN12C = system: SN12C
SNB-19 = system: SNB-19
SNB-75 = system: SNB-75
SNB-78 = system: SNB-78
SR = system: SR
SW-620 = system: SW-620
TK-10 = system: TK-10
U-251 = system: U-251
UACC-62 = system: UACC-62
UO-31 = system: UO-31
XF498 = system: XF498
A498 = system: A498
DLD-1 = system: DLD-1
SK-OV-3 = system: SK-OV-3
UACC-257 = system: UACC-257
CAKI-1 = system: CAKI-1
HOP-18 = system: HOP-18
HOP-92 = system: HOP-92

Structure (SMILES): COc1ccc(CNc2cnc3cc(N)ccc3n2)cc1
- GI50 (786-0): > 100 µM (inactive)
- GI50 (A549): > 100 µM (inactive)
- GI50 (ACHN): > 100 µM (inactive)
- GI50 (CCRF-CEM): 30 µM (inactive)
- GI50 (COLO 205): > 100 µM (inactive)
- GI50 (DMS-114): > 100 µM (inactive)
- GI50 (DMS-273): > 100 µM (inactive)
- GI50 (EKVX): > 100 µM (inactive)
- GI50 (HCC 2998): > 100 µM (inactive)
- GI50 (HCT-116): > 100 µM (inactive)
- GI50 (HCT-15): > 100 µM
- GI50 (HL-60): 77.1 µM (inactive)
- GI50 (HOP-62): > 100 µM (inactive)
- GI50 (HT-29): > 100 µM (inactive)
- GI50 (IGROV-1): > 100 µM (inactive)
- GI50 (K562): > 100 µM (inactive)
- GI50 (KM-20L2): > 100 µM (inactive)
- GI50 (KM12): > 100 µM (inactive)
- GI50 (LOX IMVI): > 100 µM (inactive)
- GI50 (LXFL 529): > 100 µM (inactive)
- GI50 (M14): > 100 µM (inactive)
- GI50 (M19-MEL): > 100 µM (inactive)
- GI50 (MOLT-4): 69 µM (inactive)
- GI50 (Malme-3M): > 100 µM (inactive)
- GI50 (NCI-H226): 80.7 µM (inactive)
- GI50 (NCI-H23): > 100 µM (inactive)
- GI50 (NCI-H460): > 100 µM (inactive)
- GI50 (NCI-H522): > 100 µM (inactive)
- GI50 (OVCAR-3): > 100 µM (inactive)
- GI50 (OVCAR-4): > 100 µM (inactive)
- GI50 (OVCAR-5): > 100 µM (inactive)
- GI50 (OVCAR-8): > 100 µM (inactive)
- GI50 (RPMI-8226): 42.8 µM (inactive)
- GI50 (RXF 393): > 100 µM (inactive)
- GI50 (SF-268): > 100 µM (inactive)
- GI50 (SF-295): 94.4 µM (inactive)
- GI50 (SF-539): > 100 µM (inactive)
- GI50 (SK-MEL-28): > 100 µM (inactive)
- GI50 (SK-MEL-2): > 100 µM (inactive)
- GI50 (SK-MEL-5): > 100 µM (inactive)
- GI50 (SN12C): > 100 µM (inactive)
- GI50 (SNB-19): 69 µM (inactive)
- GI50 (SNB-75): 52.6 µM (inactive)
- GI50 (SNB-78): > 100 µM (inactive)
- GI50 (SR): 55.3 µM (inactive)
- GI50 (SW-620): > 100 µM (inactive)
- GI50 (TK-10): > 100 µM (inactive)
- GI50 (U-251): > 100 µM (inactive)
- GI50 (UACC-62): > 100 µM (inactive)
- GI50 (UO-31): 26.4 µM (inactive)
- GI50 (XF498): > 100 µM (inactive)

Structure (SMILES): COc1ccc(OC(C)C(=O)O)c2c1CCCC2=O (stereo not drawn)
- GI50 (786-0): > 100 µM (inactive)
- GI50 (A498): > 100 µM (inactive)
- GI50 (A549): > 100 µM (inactive)
- GI50 (ACHN): > 100 µM (inactive)
- GI50 (CCRF-CEM): > 100 µM (inactive)
- GI50 (COLO 205): > 100 µM (inactive)
- GI50 (DLD-1): > 100 µM (inactive)
- GI50 (DMS-114): > 100 µM (inactive)
- GI50 (DMS-273): > 100 µM (inactive)
- GI50 (EKVX): > 100 µM (inactive)
- GI50 (HCC 2998): > 100 µM (inactive)
- GI50 (HCT-116): > 100 µM (inactive)
- GI50 (HCT-15): > 100 µM
- GI50 (HL-60): > 100 µM (inactive)
- GI50 (HOP-62): > 100 µM (inactive)
- GI50 (HT-29): > 100 µM (inactive)
- GI50 (IGROV-1): > 100 µM (inactive)
- GI50 (K562): > 100 µM (inactive)
- GI50 (KM-20L2): < 0.01 µM (active)
- GI50 (KM12): > 100 µM (inactive)
- GI50 (LOX IMVI): > 100 µM (inactive)
- GI50 (LXFL 529): > 100 µM (inactive)
- GI50 (M14): > 100 µM (inactive)
- GI50 (M19-MEL): > 100 µM (inactive)
- GI50 (MOLT-4): > 100 µM (inactive)
- GI50 (Malme-3M): > 100 µM (inactive)
- GI50 (NCI-H226): > 100 µM (inactive)
- GI50 (NCI-H23): > 100 µM (inactive)
- GI50 (NCI-H460): > 100 µM (inactive)
- GI50 (NCI-H522): > 100 µM (inactive)
- GI50 (OVCAR-3): > 100 µM (inactive)
- GI50 (OVCAR-4): > 100 µM (inactive)
- GI50 (OVCAR-5): > 100 µM (inactive)
- GI50 (OVCAR-8): > 100 µM (inactive)
- GI50 (RPMI-8226): > 100 µM (inactive)
- GI50 (RXF 393): > 100 µM (inactive)
- GI50 (SF-268): > 100 µM (inactive)
- GI50 (SF-295): > 100 µM (inactive)
- GI50 (SF-539): > 100 µM (inactive)
- GI50 (SK-MEL-28): > 100 µM (inactive)
- GI50 (SK-MEL-2): > 100 µM (inactive)
- GI50 (SK-MEL-5): > 100 µM (inactive)
- GI50 (SK-OV-3): > 100 µM (inactive)
- GI50 (SN12C): > 100 µM (inactive)
- GI50 (SNB-19): > 100 µM (inactive)
- GI50 (SNB-75): > 100 µM (inactive)
- GI50 (SNB-78): > 100 µM (inactive)
- GI50 (SR): > 100 µM (inactive)
- GI50 (SW-620): > 100 µM (inactive)
- GI50 (TK-10): > 100 µM (inactive)
- GI50 (U-251): > 100 µM (inactive)
- GI50 (UACC-257): > 100 µM (inactive)
- GI50 (UACC-62): > 100 µM (inactive)
- GI50 (UO-31): > 100 µM (inactive)
- GI50 (XF498): > 100 µM (inactive)

Structure (SMILES): COc1ccc(-c2c(C3=NCCCN3)nnn2-c2ccc([N+](=O)[O-])cc2)cc1
- GI50 (786-0): > 100 µM (inactive)
- GI50 (A498): > 100 µM (inactive)
- GI50 (A549): > 100 µM (inactive)
- GI50 (ACHN): > 100 µM (inactive)
- GI50 (CAKI-1): > 100 µM (inactive)
- GI50 (CCRF-CEM): > 100 µM (inactive)
- GI50 (COLO 205): > 100 µM (inactive)
- GI50 (DLD-1): > 100 µM (inactive)
- GI50 (DMS-114): > 100 µM (inactive)
- GI50 (DMS-273): > 100 µM (inactive)
- GI50 (EKVX): > 100 µM (inactive)
- GI50 (HCC 2998): > 100 µM (inactive)
- GI50 (HCT-116): > 100 µM (inactive)
- GI50 (HCT-15): > 100 µM
- GI50 (HL-60): > 100 µM (inactive)
- GI50 (HOP-18): > 100 µM (inactive)
- GI50 (HOP-62): > 100 µM (inactive)
- GI50 (HOP-92): > 100 µM (inactive)
- GI50 (HT-29): > 100 µM (inactive)
- GI50 (IGROV-1): > 100 µM (inactive)
- GI50 (K562): > 100 µM (inactive)
- GI50 (KM-20L2): > 100 µM (inactive)
- GI50 (KM12): > 100 µM (inactive)
- GI50 (LOX IMVI): > 100 µM (inactive)
- GI50 (LXFL 529): > 100 µM (inactive)
- GI50 (M14): > 100 µM (inactive)
- GI50 (M19-MEL): > 100 µM (inactive)
- GI50 (MOLT-4): > 100 µM (inactive)
- GI50 (Malme-3M): > 100 µM (inactive)
- GI50 (NCI-H226): > 100 µM (inactive)
- GI50 (NCI-H23): > 100 µM (inactive)
- GI50 (NCI-H460): > 100 µM (inactive)
- GI50 (NCI-H522): > 100 µM (inactive)
- GI50 (OVCAR-3): > 100 µM (inactive)
- GI50 (OVCAR-4): > 100 µM (inactive)
- GI50 (OVCAR-5): > 100 µM (inactive)
- GI50 (OVCAR-8): > 100 µM (inactive)
- GI50 (RPMI-8226): > 100 µM (inactive)
- GI50 (RXF 393): > 100 µM (inactive)
- GI50 (SF-268): > 100 µM (inactive)
- GI50 (SF-295): > 100 µM (inactive)
- GI50 (SF-539): > 100 µM (inactive)
- GI50 (SK-MEL-28): > 100 µM (inactive)
- GI50 (SK-MEL-2): > 100 µM (inactive)
- GI50 (SK-MEL-5): > 100 µM (inactive)
- GI50 (SK-OV-3): 34.8 µM (inactive)
- GI50 (SN12C): > 100 µM (inactive)
- GI50 (SNB-19): > 100 µM (inactive)
- GI50 (SNB-75): > 100 µM (inactive)
- GI50 (SNB-78): > 100 µM (inactive)
- GI50 (SR): > 100 µM (inactive)
- GI50 (SW-620): > 100 µM (inactive)
- GI50 (TK-10): > 100 µM (inactive)
- GI50 (U-251): > 100 µM (inactive)
- GI50 (UACC-257): > 100 µM (inactive)
- GI50 (UACC-62): > 100 µM (inactive)
- GI50 (UO-31): > 100 µM (inactive)
